Columns and labels:
Pgp69-lux = Pgp69-lux reporter assay in V. parahaemolyticus lysogen; assay type: cell-based; details: VP882 lysogen
Description: (§1) Growth, Lysis, and Reporter Assays. Typically, overnight cultures were back diluted 1:1000 into fresh medium with appropriate antibiotics and strains were grown to OD600 0.5-0.6. Cultures were back diluted 1:20, and grown to OD600 0.1, before being dispensed (200 μL) into 96 well plates (Corning Costar 3904). MMC, ara, or aTc was added as specified. […] Plates were shaken at 37° C. and a BioTek Synergy Neo2 Multi-Mode reader was used to measure OD600, OD600 and bioluminescence, or OD600 and fluorescence. […]. In the case of fluorescence assays, M9 supplemented with 0.4% casamino acids (BD-Difco) was used and readings were made by excitation at 588 nm and emission at 633 nm. The glycerol stocks were prepared from three independent colonies of each strain at a single OD600. Care was taken to ensure that the OD600 between these strains was identical prior to storage. Parallel cultures of the same strains were used for viral preparations.

phage VP882 cI = assay: Confocal microscopy of HALO-cI localization (VP882 cI); assay type: cell-based; details: single-cell level in E. coli
Description: (§2) Confocal Microscopy. Overnight cultures, started from single colonies of E. coli (T7Express) carrying HALO and/or SNAP fusions (see Table 2) were back-diluted 1:1000, and grown at 37° C. to OD600˜0.2. Either MMC, aTc, or ethanol in water was added. The so-treated samples were returned to shaking at 37° C. for an additional 60 min prior to live-cell staining and imaging. Live-cell staining was performed using a protocol adapted from (Ke et al., 2016). Briefly, HALO-TMR was added to each sample at 10 μM. The samples were incubated in the dark for 15-20 min at 37° C. The cells were pelleted at 13,000 g×1 min, washed twice with M9 medium, and resuspended in 50-150 μL of fresh M9 medium. 5-10 μL of each sample was spotted onto a glass coverslip and overlaid with a small amount of M9-agar. The samples were imaged on a Leica SP8 Confocal microscope. HALO-TMR was excited with 561 nm light and detected within a range of 579-622 nm. For SNAP-Qtip co-localization experiments, the SNAP-specific dye JF503 (Grimm et al., 2017) was added at 10 μM at the same time as the HALO-TMR reagent was added. SNAP was visualized by excitation at 504 nm and detection within 516-540 nm. All images were acquired under the same conditions (laser power and gain) in LASX (Leica Microsystems). Images were imported into Fiji for processing, which consisted solely of adjusting brightness and contrast (min-max).

[1] = system: V. parahaemolyticus harboring phage VP882; assay: Phage (virion) DNA isolation from culture fluids; assay type: cell-based
Description: Phage DNA Isolation. Phage DNA was purified from phage particles present in the supernatants of lysed cells (virion) and from host cell pellets lysogenized with VP882 (prophage). Prophage DNA was purified using the FosmidMAX kit (Lucigen) according to the manufacturer's protocol for 1.5 mL cultures. Virion DNA was isolated using a Phage DNA isolation kit (Norgen Biotek) including the DNase I and Proteinase K treatment steps indicated in the manufacturer's protocol.

Pq-lux [2] = assay: Pq-lux reporter assay in V. parahaemolyticus; assay type: cell-based; details: VP882 lysogen
Description: as §1

HIS-HALO-Gp59 = assay: Western blot to assess HIS-HALO-Gp59 cleavage; assay type: cell-based, E. coli
[3] = system: V. parahaemolyticus lysogenized with phage VP882; assay: Growth/lysis assay (OD600), VP882 lysogen; assay type: cell-based; details: for host cell lysis (OD600): wild-type VP882 lysogen, expression induced (ara or aTc) or MMC added
Description: as §1

Pq-lux [4] = assay: Pq-lux reporter assay in recombinant E. coli; assay type: cell-based
Description: as §1

[5] = system: phage VP882 vqmAPhage::Tn5 in V. cholerae; assay: Viral load by quantitative PCR of viral preparations; assay type: cell-based
Description: qPCR and Viral Preparations. Viral preparations consisted of purified non-chromosomal DNA (ZR BAC kit, Zymo Research) prepared from 2 mL of cells. Following addition of the indicated compounds or water control, the cultures were returned to growth for 3 h prior to harvesting. This alteration in procedure was necessary to enable growth of sufficient cells for use with the viral preparation kit. 0.5 ng of purified non-chromosomal DNA was used for each qPCR reaction. qPCR reactions were performed as described above for qRT-PCR reactions. Data were analyzed by a comparative CT method in which the VP882 phage-specific primer set (JSO-1399×1400) was normalized to the non-phage plasmid-specific primer set (JSO-1401×1402). The reference sample for each comparison was the isogenic strain (Δtdh or WT) that was not induced.

[6] = system: V. cholerae carrying the VP882 prophage; assay: Growth/lysis assay (OD600), V. cholerae carrying VP882; assay type: cell-based
Description: as §1

[7] = system: E. coli, V. cholerae, and V. parahaemolyticus; assay: Generalized DPO-based phage kill switch growth/lysis assay (FIG. 4); assay type: cell-based; details: arabinose plus DPO (50 μM synthetic DPO per FIG. 4 legend)
Description: FIG. 4 is a graph showing the growth of E. coli, V. cholerae, and V. parahaemolyticus strains lysogenized with the generalized DPO-based phage kill switch in minimal medium lacking (black bars) or containing (white bars) 50 μM synthetic DPO to induce lysis, where all media contained arabinose.
as §1

lambda HALO-cI = assay: Confocal microscopy of HALO-cI localization (lambda cI); assay type: cell-based; details: co-expression in E. coli
Description: as §2

HALO-cI from MJ1 = assay: Confocal microscopy of HALO-cI localization (MJ1 cI); assay type: cell-based, phage MJ1; details: co-expression in E. coli
Description: as §2

cI = assay: Co-immunoprecipitation of HALO-cI with HIS-Gp55; assay type: binding, phage VP882; details: combined E. coli lysates
[8] = system: HALO-cI repressor from vibriophage VP58.5; assay: Confocal microscopy of HALO-cI localization (VP58.5 cI); assay type: cell-based; details: co-expression in E. coli
Description: as §2

[9] = synthetic DPO supplied to WT and Δtdh strains, vqmAPhage induced
[10] = WT and Δtdh strains, qtip from inducible promoter or MMC

CO[C@@]12[C@H](COC(N)=O)C3=C(C(=O)C(C)=C(N)C3=O)N1C[C@@H]1N[C@@H]12 [MMC, mitomycin C]
light production from Pgp69-lux (Pgp69-lux): rapidly increased
offset between activation of Pq-lux and activation of Pgp69-lux (Pgp69-lux): 10 min
cI localization (VP882 HALO-cI) (phage VP882 cI): remained diffuse
release of VP882 phage DNA into culture fluids [1]: VP882 phage DNA could be purified
light production from Pq-lux (Pq-lux [2]): rapidly increased
HIS-HALO-Gp59 bands on Western blot (HIS-HALO-Gp59; recA+ E. coli, MMC-treated): lower-molecular-weight bands, presumably cleavage products
HIS-HALO-Gp59 protein on Western blot (HIS-HALO-Gp59; ΔrecA E. coli, MMC treatment): unaffected
host cell lysis ([3]; VP882 phage harboring gp62::Tn5): do not
host cell lysis ([3]; VP882 phage with a Tn5 in vqmAPhage): lyse
Pq-lux light production (Pq-lux [4]; recA+ E. coli carrying Pq-lux and HIS-HALO-Gp59): significant increase in light production
Pq-lux light production (Pq-lux [4]; ΔrecA E. coli carrying Pq-lux and HIS-HALO-Gp59): no effect

Cc1cnc(O)c(C)n1 [DPO, 3,5-dimethylpyrazine-2-ol]
additional increase in viral load with exogenous DPO versus endogenous DPO only ([5]; WT strain): 35%
viral load [5, 9]: increased in both strains to similar extents
additional lysis with exogenous DPO versus endogenously-produced DPO only ([6]; WT strain): 25%
lysis [6, 9]: lysis occurred
lysis [7]: maximal lysis
host cell lysis ([3]; minimal medium lacking threonine, DPO added in the absence of induction of VqmAPhage): no lysis
host cell lysis ([3]; minimal medium lacking threonine, vqmAPhage induced with 0.2% ara, DPO 10 μM): maximal host cell lysis

B1: ORF584 (protein, listed as Vibrio cholerae)
chain: MDLRVSNAKDLLDKFEEKAVQMESISQLLANAPEDLTLATVQGSLSALASIARDAGEAADRLRTISSAEG
cI localization (VP882 HALO-cI) (phage VP882 cI): stripe of cI localization along the length of the cell
cI localization (VP882 HALO-cI) (phage VP882 cI; listed as orf584): caused aggregation
cI aggregation (lambda HALO-cI) (lambda HALO-cI): not
cI aggregation (MJ1 HALO-cI) (HALO-cI from MJ1): caused aggregation
host cell lysis (OD600) [3]: lysis
phage VP882 Pq expression (Pq-lux [4]; orf584 induced, host per Table 2): de-repression

B2: Qtip (protein, listed as Vibrio cholerae)
chain: MCDFCSEHIDSLDALQSSLEKGTAIIELLDTALSAGIEVSPRVVSCALSAAHQHLQVSEKINRSLQIGCGSKEVLRLVD
cI localization (VP882 HALO-cI) (phage VP882 cI): foci located primarily at the cell poles
binding of cI during purification of HIS-Gp55 (cI): cI binds to Gp55
viral production [5, 10]: increased viral production
cI aggregation (lambda HALO-cI) (lambda HALO-cI): No aggregation occurred
lysis [6, 10]: Near-complete lysis
cI aggregation (VP58.5 HALO-cI) [8]: Aggregation also occurred
cI aggregation (MJ1 HALO-cI) (HALO-cI from MJ1): resulted in foci
host cell lysis (OD600) [3]: host cell lysis comparable to when MMC was added or vqmAPhage was induced
Pq-lux activity (Pq-lux [4]; combined reporter plasmid (inducible vqmAPhage, Pq-lux, cI), pTetA-gp55 induced): sufficient to generate Pq-lux activity
